Source: publication PMC3827205, “Discovery and Characterization of a Novel Cyclic Peptide That Effectively Inhibits Ephrin Binding to the EphA4 Receptor and Displays Anti-Angiogenesis Activity” (PLoS ONE, 2013)
Several values for one entry are separate records, joined by “and”; a condition that tells them apart may be missing. Identical values can stand only once. Positions of bridges follow the written chain, without caps; N, C: chain ends. Residues, ends and D or L forms follow the SMILES beside them. No end group written: not given here.

Legend:
HUVEC = HUVEC viability assay (CellTiter-Blue); type: cell-based, human; conditions: for cytotoxic effects on HUVECs: 48 h, 37°C, CellTiter-Blue, fluorescence 540Ex/600Em, at least three independent experiments
Procedure: The cytotoxic effects of the TYY cyclic peptide were measured at different concentrations by plating 1×10^4 HUVEC cells (ATCC) per well in 96-well plates and determining cell survival. Cells were treated with various concentrations of TYY (10 μM and 20 μM) and incubated in an incubator with a 5% CO2 and 95% humidity atmosphere at 37°C for 24 h and 48 h. After incubation, cell viability was measured using a CellTiter-Blue assay kit (Promega) according to the manufacturer’s instructions. Briefly, 20 μl of CellTiter-Blue reagent was added to 100 μl of culture media and cells were incubated for 2-4 hours at 37°C. Afterward, fluorescence at 540Ex/600Em was measured using a fluorescence plate reader (BioTek, Synergy 2). Each experimental data point was generated from at least three independent experiments.
Figure 3 Effects of the TYY cyclic peptide on viability of HUVEC cells. The HUVECs were treated with the indicated concentrations of the TYY peptide. A 0.1% DMSO control was used because the highest concentration of the DMSO vehicle in the TYY solutions was 0.1%. The cell viability was determined by CellTiter-Blue assays 24 h and 48 h after addition of TYY. Each experimental data point was generated from at least three independent experiments.

[1] = biological target: T1, EphA4 Fc Chimera protein / ephrinA5 (Mus musculus, UniProt Q03137); assay: ELISA-based binding assay: inhibition of ephrinA5 AP binding to immobilized EphA4 Fc; type: biochemical
T1 construct: using the immobilized EphA4 extracellular domain fused to human Fc; purchased R&D Systems, Minneapolis, MN
T1 sequence (Q03137 20-547 limits assumed, change not shown): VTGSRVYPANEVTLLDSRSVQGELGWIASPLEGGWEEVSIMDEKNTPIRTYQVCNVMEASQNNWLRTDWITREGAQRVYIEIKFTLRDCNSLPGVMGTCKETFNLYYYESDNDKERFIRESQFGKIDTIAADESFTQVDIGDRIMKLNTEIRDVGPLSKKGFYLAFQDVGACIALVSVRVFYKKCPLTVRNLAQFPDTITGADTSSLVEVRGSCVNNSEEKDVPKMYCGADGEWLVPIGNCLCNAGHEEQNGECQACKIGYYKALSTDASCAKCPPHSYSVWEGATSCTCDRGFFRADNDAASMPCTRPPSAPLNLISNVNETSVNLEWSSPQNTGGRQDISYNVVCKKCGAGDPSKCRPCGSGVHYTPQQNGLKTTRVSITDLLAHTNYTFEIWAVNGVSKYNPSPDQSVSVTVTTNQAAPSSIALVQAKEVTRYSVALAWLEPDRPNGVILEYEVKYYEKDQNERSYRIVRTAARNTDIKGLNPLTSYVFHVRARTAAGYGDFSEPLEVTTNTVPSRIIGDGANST
Procedure: For Eph receptor binding studies, 50 μl of ephrin A5 (5 μg/ml, kindly provided by Dr. Elena B. Pasquale, Sanford-Burnham Medical Research Institute) was coated onto each well on a 96-well ELISA plate (Corning, #3690) overnight at 4°C. The wells were blocked with 100 μl blocking buffer (Pierce, #37543) for 1 h and then rinsed with PBS. A 1 μg of recombinant mouse EphA4 Fc Chimera protein (R&D Systems, Minneapolis, MN) in EIA buffer (1% BSA, 0.05% Tween 20 in TBS) was then incubated in each well for 1.5 h at room temperature. The EphA4 Fc-coated wells were rinsed with PBS buffer and incubated for 1.5 h with different peptide concentrations and same amount of alkaline phosphatase (AP)-tagged ephrin A5 in a total volume of 50 μl. After the unbound peptide and ephrin had been washed away, bound ephrin-A5 AP was quantified using p-nitrophenylphosphate as a substrate by a Synergy2 reader (BioTek, Winooski, VT) with wavelength of 405 nm. Data were fitted using nonlinear regression. IC50 values were calculated using Prism (GraphPad Software Inc.).

EphA4 Fc = assay: Phage binding assay (phage-displayed peptide on EphA4 Fc); parameters: species or system mouse; conditions: 4 μg/ml EphA4 Fc coating, room temperature, 2 h, HRP-anti-M13, ABTS, 405 nm, versus BSA control
Procedure: A pre-made library consisting of a disulfide-constrained nonapeptide (Ph.D.-C7C) library (New England Biolabs, Beverly, MA) was used for panning on EphA4. Recombinant mouse EphA4 Fc Chimera protein (R&D Systems, Minneapolis, MN) was incubated overnight at 4°C in 96-well ELISA plate wells at concentrations of 10 μg/ml in coating buffer (0.1 M NaHCO3). Wells were blocked for 1 h with blocking buffer (0.1 M NaHCO3, 5 mg/ml BSA, 0.02%NaN3), and rinsed with TBST (0.1% Tween20 in TBS). In round 1 of panning, 5×10^10 plaque-forming units (PFUs) of the phage library in 100 μl TBST were incubated for 1h at room temperature in EphA4 receptor-coated wells. After washing, the remaining bound phage were eluted with 100 μl of 0.2 M glycine-HCl (pH 2.2), and then neutralized by 15 μl 1M Tris-HCl (pH9.1). The entire eluate was used to infect early-log phase ER2738 host bacteria and amplified (4.5 h, 37 °C). The phage were concentrated and stored according to the manufacturer’s recommendations. In rounds 2, 3, and 4, we added 4.9×10^10, 1.81×10^11, 1.95×10^11 PFUs of the amplified phage pool from the previous round, respectively, to an EphA4 Fc-coated well and a BSA coated well. The phages were panned as described for round 1, except eluted phages were tittered prior to amplification to assess enrichment.
Phages binding to EphA4 receptor-coated plates were quantified using an anti-phage antibody conjugated to horseradish peroxidase (M13 phage detection kit, Amersham Pharmacia Biotech, Piscataway, NJ) with 2,2-azino-bis(3-ethylbenzthiazoline-6-sulfonic acid) as substrate. A 50 μl of 4 μg/ml EphA4 Fc or 5 mg/ml BSA (as a negative control) in coating buffer (0.1 M NaHCO3) was incubated overnight at 4°C in 96-well ELISA plate wells. Wells were blocked for 30 minutes with blocking buffer, and rinsed with TBST. A 50 μl of amplified phage was added to each well and incubated at room temperature for 2 h. […] Absorbance of each well was read at 405 nm with a Synergy 2 reader (BioTek, Synergy 2). […]

EphA4 = conditions: ref [25]; cited from earlier work
Text: A promising strategy for anti-angiogenic cancer therapies is to antagonize Eph-ephrin interactions by interfering with the Eph receptor/ephrin system. Several different synthetic peptides and small molecules have been studied for this purpose; the advantage of these artificial ligands is that they can show a much higher selectivity compared to the physiological ephrin ligands.

## CC(C)C[C@@H]1NC(=O)[C@@H]2CCCN2C(=O)[C@H](Cc2c[nH]c3ccccc23)NC(=O)[C@H](Cc2ccc(O)cc2)NC(=O)[C@H](Cc2ccc(O)cc2)NC(=O)[C@H]([C@@H](C)O)NC(=O)[C@@H](N)CSSC[C@@H](C(N)=O)NC(=O)[C@@H]2CCCN2C1=O [TYY] (H-CTYYWPLPC-NH2; disulfide 1-9)
HUVEC; 10 μM
  cytotoxic effects on HUVECs: no cytotoxic effects on HUVECs
HUVEC; 20 μM
  cytotoxic effects on HUVECs: no cytotoxic effects on HUVECs
HUVEC; concentrations up to 20 μM
  cytotoxic effects in HUVECs: no cytotoxic effects in the HUVECs
[1]; 100 nM peptide, ELISA, 1.5 h, three independent measurements
  inhibition of EphA4-ephrinA5 binding: 24.8%
[1]; 100 μM peptide, ELISA, 1.5 h, three independent measurements
  inhibition of EphA4-ephrinA5 binding: 94.06% and 94%
[1]; ELISA, ephrin A5-coated plate, EphA4 Fc, AP-tagged ephrin A5, 1.5 h incubation, p-nitrophenylphosphate, 405 nm, nonlinear regression (Prism), three independent measurements
  IC50: 11.7 µM

## CLMTSQFRC (disulfide 1-9) [cyclic nonapeptide c[…] from M13 phage display library, tested on phage]
EphA4 Fc
  binding of phage clones to EphA4 Fc: significant binding

## CSWYWPLPC (disulfide 1-9) [disulfide-constrained cyclic nonapeptide c[…] from M13 phage display library]
[1]; 50 μM peptide, ELISA, 1.5 h
  inhibition of ephrin A5 binding to EphA4: 40%
[1]; dose dependence
  inhibition of EphA4 binding with AP-tagged ephrinA5 (in words): dose-dependent inhibition
EphA4 Fc
  binding of phage clones to EphA4 Fc: significant binding

## CWPIKVGWC (disulfide 1-9) [cyclic nonapeptide c[…] from M13 phage display library, tested on phage]
EphA4 Fc
  binding of phage clones to EphA4 Fc: significant binding

## KYLPYWPVLSSL [linear 12-residue KYL peptide (…), positive control, reference compound]
EphA4
  artificial ligand of EphA4: act as artificial ligands
[1]; 25 μM, positive control, ELISA, 1.5 h, three independent measurements
  inhibition of EphA4-ephrinA5 binding: 92%
